Source: US4593090A, “Novel nitrosourea compounds, method for preparing same, and pharmaceutical composition containing same” (Gogo Kimura, priority 1981, dated 1986)

How the values were obtained:
Leukemia L1210 = assay: Activity against Leukemia L1210, intraperitoneal, increase in life span of mice; type: in vivo, female mice (BDF1 family); details: for ED (maximum ILS) / ED30: Mus musculus, L1210, ip, ip once a day for 5 successive days; for ED (maximum ILS): daily dosage giving maximum increase of life span, read-out: O.D. (optimum dosage); for ED30: daily dosage increasing average survival days by 30%, read-out: ILS30; for Survivors after 60 days / Max. ILS % / Therapeutic ratio TR: ip; for Survivors after 60 days: 6-membered group; for Max. ILS %: 60-day observation, versus control; for Therapeutic ratio TR: O.D./ILS30
Method in brief: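 L1210 cells (1×10^5) into abdominal cavity of female BDF1 mice, 20–23 g, n=6/group. Dosing 24 h post-implant, ip or po, qd ×5. 60-day observation; ILS% = mean survival vs untreated control; T.R. = O.D./ILS 30.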

[1] = Acute toxicity (LD50, Behrens-Karber method); type: in vivo, ICR mice; details: mouse, in vivo, ip, mortality during 30 days
Method: Test compounds, dissolved or suspended in 0.5% aqueous CMC, were each intraperitoneally administered to ICR mice in a dose of 0.1 ml per 10 g body weight. LD50 (mg/kg) value of each test compound was calculated from the mortality of mice during 30 days by the Behrens-Karber method.

SMILES | ED (maximum ILS) (Leukemia L1210) [mg/kg] | ED30 (Leukemia L1210) [mg/kg] | Survivors after 60 days (Leukemia L1210) | Max. ILS % (Leukemia L1210) [%] | Therapeutic ratio TR (Leukemia L1210) | LD50 at 720 h [1] [mg/kg]
CC(C)CN(C(=O)N(CCCl)N=O)[C@@H]1[C@@H](O)[C@@H](OC2CCCCC2)OC[C@H]1O [Compound 150, 3-isobutyl-3-(cyclohexyl α-D-xylopyranose-3-yl)-1-(2-chloroethyl)-1-nitrosourea] | 150 | 3.12 | 4/6 | > 420 | 48.1 | 505
CC(C)CN(C(=O)N(CCCl)N=O)[C@@H]1CO[C@H](OC2CCCCC2)[C@H](O)[C@H]1O [Compound 151, 3-isobutyl-3-(cyclohexyl α-D-xylopyranose-4-yl)-1-(2-chloroethyl)-1-nitrosourea] | 150 | 3.21 | 4/6 | > 425 | 46.7 | 490
CC(C)CO[C@@H]1OC[C@H](N(C(=O)N(CCCl)N=O)C2CCCCC2)[C@H](O)[C@H]1O [Compound 152] | 170 | 4.31 | 4/6 | > 425 | 43.1 | 550
COCCCN(C(=O)N(CCCl)N=O)[C@H]1CO[C@@H](OCC(C)C)[C@H](O)[C@H]1O [Compound 154, 3-(3-methoxy-n-propyl)-3-(isobutyl α-L-arabinopyranose-4-yl)-1-(2-chloroethyl)-1-nitrosourea] | 160 | 2.85 | 5/6 | > 620 | 56.1 | 500
COCCN(C(=O)N(CCCl)N=O)[C@H]1[C@H](OC2CCCCC2)OC[C@H](O)[C@@H]1O [Compound 155, 3-(2-methoxyethyl)-3-(cyclohexyl α-L-arabinopyranose-2-yl)-1-(2-chloroethyl)-1-nitrosourea] | 160 | 2.64 | 6/6 | > 700 | 60.6 | 520
CCC(C)O[C@@H]1OC[C@H](O)[C@H](O)[C@H]1N(CCCOC)C(=O)N(CCCl)N=O (stereo partly drawn) [Compound 158, 3-(3-methoxy-n-propyl)-3-(sec-butyl α-L-arabinopyranose-2-yl)-1-(2-chloroethyl)-1-nitrosourea] | 170 | 3.21 | 6/6 | > 700 | 53.0 | 530
COCCCN(C(=O)N(CCCl)N=O)[C@@H]1CO[C@H](OC2CCCCC2)[C@@H](O)[C@@H]1O [Compound 160, 3-(3-methoxy-n-propyl)-3-(cyclohexyl α-D-arabinopyranose-4-yl)-1-(2-chloroethyl)-1-nitrosourea] | 180 | 3.1 | 6/6 | > 700 | 58.1 | 550
CC(C)CN(C(=O)N(CCCl)N=O)[C@@H]1[C@H](OC2CCCCC2)O[C@H](CO)[C@H]1O [Compound 162, 3-isobutyl-3-(cyclohexyl β-D-arabinofuranose-2-yl)-1-(2-chloroethyl)-1-nitrosourea] | 160 | 5.63 | 3/6 | > 350 | 28.4 | 500
CC(C)CN(C(=O)N(CCCl)N=O)[C@H]1[C@H](O)[C@H](OC2CCCCC2)O[C@@H]1CO [Compound 163, 3-isobutyl-3-(cyclohexyl β-D-arabinofuranose-3-yl)-1-(2-chloroethyl)-1-nitrosourea] | 160 | 4.91 | 3/6 | > 365 | 32.6 | 550
COCCCN(C(=O)N(CCCl)N=O)[C@@H]1[C@@H](O)[C@@H](OCC(C)C)O[C@@H]1CO [Compound 165, 3-(3-methoxy-n-propyl)-3-(isobutyl α-D-xylofuranose-3-yl)-1-(2-chloroethyl)-1-nitrosourea] | 160 | 5.57 | 3/6 | > 340 | 28.7 | 480
CC(C)CN(C(=O)N(CCCl)N=O)[C@H]1[C@@H](OC2CCCCC2)O[C@H](CO)[C@@H]1O [Compound 166, 3-isobutyl-3-(cyclohexyl α-D-xylofuranose-2-yl)-1-(2-chloroethyl)-1-nitrosourea] | 150 | 4.75 | 3/6 | > 345 | 31.6 | 450
COCCCO[C@@H]1O[C@H](CN(CCCOC)C(=O)N(CCCl)N=O)[C@@H](O)[C@H]1O [Compound 168, 3-(3-methoxy-n-propyl)-3-(3-methoxy-n-propyl β-D-ribofuranose-5-yl)-1-(2-chloroethyl)-1-nitrosourea] | 160 | 3.3 | 4/6 | > 425 | 48.5 | 500
CC(C)CN(C[C@H]1O[C@@H](OC2CCCCC2)[C@H](O)[C@@H]1O)C(=O)N(CCCl)N=O [Compound 169, 3-isobutyl-3-(cyclohexyl β-D-ribofuranose-5-yl)-1-(2-chloroethyl)-1-nitrosourea] | 180 | 3.9 | 4/6 | > 420 | 46.2 | 550
COCC(C)N(C[C@H]1O[C@H](OC2CCCC2)[C@H](O)[C@@H](O)[C@@H]1O)C(=O)N(CCCl)N=O (stereo partly drawn) [Compound 172, 3-(1-methy-2-methoxyethyl)-3-(cyclopentyl α-D-glucopyranose-6-yl)-1-(2-chloroethyl)-1-nitrosourea] | 180 | 2.67 | 6/6 | > 700 | 67.3 | 600
CC(C)(C)O[C@H]1O[C@H](CN(C(=O)N(CCCl)N=O)C2CCCCC2)[C@@H](O)[C@H](O)[C@H]1O [Compound 173, 3-cyclohexyl-3-(tert-butyl α-D-glucopyranose-6-yl)-1-(2-chloroethyl)-1-nitrosourea] | 160 | 3.16 | 5/6 | > 630 | 50.6 | 510
CC(C)CO[C@@H]1O[C@H](CO)[C@@H](O)[C@H](O)[C@H]1N(C(=O)N(CCCl)N=O)C(C)(C)C [Compound 176, 3-tert-butyl-3-(isobutyl β-D-glucopyranose-2-yl)-1-(2-chloroethyl)-1-nitrosourea] | 180 | 5.9 | 6/6 | > 700 | 30.5 | 620
C=C(C)CO[C@H]1O[C@H](CN(C(=O)N(CCCl)N=O)C(C)(C)C)[C@@H](O)[C@H](O)[C@H]1O [Compound 177, 3-tert-butyl-3-(2-methyl-2-propenyl α-D-glucopyranose-6-yl)-1-(2-chloroethyl)-1-nitrosourea] | 180 | 2.75 | 6/6 | > 700 | 65.4 | 550
COc1ccc(CO[C@H]2O[C@H](CN(C(=O)N(CCCl)N=O)C(C)(C)C)[C@@H](O)[C@H](O)[C@H]2O)cc1 [Compound 182, 3-tert-butyl-3-(p-methoxybenzyl α-D-glucopyranose-6-yl)-1-(2-chloroethyl)-1-nitrosourea] | 140 | 3.49 | 5/6 | > 620 | 40.1 | 420
CC(C)CO[C@@H]1O[C@H](CN(CC(C)(C)C)C(=O)N(CCCl)N=O)[C@@H](O)[C@H](O)[C@H]1O [Compound 184, 3-neopentyl-3-(isobutyl β-D-glucopyranose-6-yl)-1-(2-chloroethyl)-1-nitrosourea] | 170 | 2.93 | 6/6 | > 700 | 58.0 | 540
CCOCCO[C@H]1O[C@H](CN(CC(C)(C)C)C(=O)N(CCCl)N=O)[C@@H](O)[C@H](O)[C@H]1O [Compound 187, 3-neopentyl-3-(2-ethoxyethyl α-D-glucopyranose-6-yl)-1-(2-choroethyl)-1-nitrosourea] | 160 | 2.66 | 6/6 | > 700 | 60.2 | 510
CC(C)CO[C@@H]1O[C@H](CN(CCC(C)(C)C)C(=O)N(CCCl)N=O)[C@@H](O)[C@H](O)[C@H]1O [Compound 189, 3-(3,3-dimethyl-n-butyl)-2-(isobutyl β-D-glucopyranose-6-yl)-1-(2-chloroethyl)-1-nitrosourea] | 150 | 3.1 | 6/6 | > 700 | 48.4 | 480
